{"source": "patent US6277871A", "about": "“Inhibitors of protein isoprenyl transferases” (Abbott Laboratories, priority 1999, dated 2001)", "data": [{"target": "T1, Rat brain protein farnesyltransferase (Rattus norvegicus, UniProt Q02293+Q04631)", "T1 construct": "Rat brain protein farnesyltransferase activity is measured; from tissue; host or cells: rat brain", "T1 sequence (Q02293 whole entry, the tested form may be a part, one chain of several)": "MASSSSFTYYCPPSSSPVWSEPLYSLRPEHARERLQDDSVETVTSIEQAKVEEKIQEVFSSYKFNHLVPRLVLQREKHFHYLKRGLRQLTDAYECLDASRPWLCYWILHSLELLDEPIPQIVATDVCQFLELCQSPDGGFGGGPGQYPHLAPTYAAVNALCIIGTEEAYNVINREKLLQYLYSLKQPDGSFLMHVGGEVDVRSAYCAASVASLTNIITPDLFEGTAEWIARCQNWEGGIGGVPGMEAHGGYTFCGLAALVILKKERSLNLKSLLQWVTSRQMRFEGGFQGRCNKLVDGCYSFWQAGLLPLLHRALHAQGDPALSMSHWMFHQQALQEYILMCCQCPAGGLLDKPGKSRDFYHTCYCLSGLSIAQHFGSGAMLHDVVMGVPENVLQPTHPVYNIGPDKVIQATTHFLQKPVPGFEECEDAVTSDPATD", "assay": "in vitro inhibition of protein farnesyltransferase (Amersham scintillation proximity assay, biotin-K Ras B fragment substrate)", "type": "biochemical", "settings": "1 × 10^-7 M; protein farnesyltransferase; compared to uninhibited control; read-out: % inhibition at 1 × 10^-7 M", "experimental": "(§1) In addition, in vitro inhibition of protein farnesyltransferase may be measured by the following procedure. […] The enzyme is purified according to Reiss, Y., et al., Cell, 62: 81-88 (1990), hereby incorporated by reference, utilizing steps one through three. […]\n(§2) The % inhibition of protein farnesyltransferase was determined for representative compounds of the invention.", "units": {"inhibition at 0.1 µM": "%"}, "values": [{"compound": "CSCC[C@H](NC(=O)C1=C(c2ccccc2C)CN(C(=O)OCCCC2CCCCC2)CC1)C(=O)O", "note": "[Example 1, N-4-[1-(3-cyclohexylpropyloxycarbonyl)-3-(2-methylphenyl)-1,2,5,6-tetrahydroisonicotinyl]methionine]", "inhibition at 0.1 µM": 100}, {"compound": "CSCC[C@H](NC(=O)C1=C(c2ccccc2C)CN(C(=O)C=Cc2cncs2)CC1)C(=O)O", "note": "[Example 2, N-4-[1-(3-[5-thiazolyl]acryloyl)-3-(2-methylphenyl)-1,2,5,6-tetrahydroisonicotinyl]methionine]", "inhibition at 0.1 µM": 43}, {"compound": "CSCC[C@H](NC(=O)C1=C(c2ccccc2C)CN(C(=O)N(Cc2ccccc2)Cc2cncs2)CC1)C(=O)O", "note": "[Example 3, N-4-[1-(N'-benzyl-5-thiazolmethylaminocarbonyl)-3-(2-methylphenyl)-1,2,5,6-tetrahydroisonicotinyl]methionine]", "inhibition at 0.1 µM": 100}, {"compound": "CSCC[C@H](NC(=O)C1=C(c2ccccc2C)CN(CCCc2ccccc2)CC1)C(=O)O", "note": "[Example 4, N-[N'-(3-phenylpropyl)-3-(2-methylphenyl)-1,2,5,6-tetrahydroisonicotinyl]methionine]", "inhibition at 0.1 µM": 55}]}, {"target": "T1, Rat brain protein farnesyltransferase", "assay": "in vitro inhibition of protein farnesyltransferase (Amersham scintillation proximity assay, biotin-K Ras B fragment substrate)", "type": "biochemical", "settings": "read-out: % inhibition at 1 × 10^-7 M", "experimental": "as §1, §2", "units": {"inhibition at 0.1 µM": "%"}, "values": [{"compound": "CSCC[C@H](NC(=O)C1=C(c2ccccc2C)CN(C(=O)Cc2cccnc2)CC1)C(=O)O", "note": "[Example 5, N-[N'-(3-pyridylacetyl)-3-(2-methylphenyl)-1,2,5,6-tetrahydroisonicotinyl]methionine]", "inhibition at 0.1 µM": 94}, {"compound": "CSCC[C@H](NC(=O)C1=C(c2ccccc2C)CN(S(=O)(=O)N(Cc2ccccc2)Cc2cncs2)CC1)C(=O)O", "note": "[Example 6, N-4-[1-(N'-benzyl-5-thiazolmethylaminosulfamoyl)-3-(2-methylphenyl)-1,2,5,6-tetrahydroisonicotinyl]methionine]", "inhibition at 0.1 µM": 90}]}]}
